Paper PMC6856039 (Investigational New Drugs, 2019)

System: Japanese patients with advanced EGFR mutation-positive NSCLC
Test: Phase I study: dose-limiting toxicities, adverse drug reactions, tolerability
Format: in vivo, human
Experimental: This was an open-label, non-randomized, dose escalation phase I study conducted between December 14, 2015 and July 7, 2016 at 12 centers in Japan. The study was conducted in three phases (dose escalation phase, expansion phase, and extension phase), and the design is shown in Supplementary Fig. 1 (Online Resource 1). […] In patients who received the BID regimen, the administration interval was ≥10 h.
The first phase was the dose escalation phase conducted according to a 3 + 3 design, with a minimum of three patients treated at each dose level. […] The dosing rationale was derived from a 4-weeks repeated oral-dose toxicology study in monkeys. […] If none of the initial three patients treated within a dose level experienced a dose-limiting toxicity (DLT) during Cycle 1, the dose was escalated to the next level. […] If none of the three additional patients experienced DLTs after all of them completed Cycle 1, the dose was escalated to the next level. If at least one of the additional three patients developed a DLT, then the dose escalation was stopped and at least six evaluable patients were enrolled at the previous dose level to establish the maximum tolerated dose (MTD). The maximum dose level was defined as Dose Level 9 (150 mg/day). Based on safety and PK results, the dosing schedule could be changed to a BID regimen.
AEs were evaluated and graded according to the National Cancer Institute Common Terminology Criteria for Adverse Events Version 4.03. DLTs were also evaluated and defined as hematologic toxicity (Grade 4 neutropenia lasting >7 days, Grade 4 thrombocytopenia or Grade 3 thrombocytopenia associated with bleeding and requiring blood transfusion, or febrile neutropenia) or non-hematologic toxicity (Grade ≥3 nausea/vomiting uncontrolled by aggressive antiemetic treatment, Grade ≥3 diarrhea lasting >48 h and unresponsive to treatment, Grade ≥3 aspartate aminotransferase/alanine aminotransferase lasting >7 days, corneal disorder worsening by ≥1 grade, or Grade ≥3 other non-hematological toxicity).

C=CC(=O)N[C@H]1CCc2c(-c3cnc4ccccc4c3)c3c(N)ncnc3n2C1 [TAS-121]
ALT increased, ≥G3 (4 mg/day QD, N = 29): 0 n | AST increased, ≥G3 (4 mg/day QD, N = 29): 0 n | Decreased appetite, any grade (4 mg/day QD, N = 29): 0 n | Decreased appetite, ≥G3 (4 mg/day QD, N = 29): 0 n | Diarrhea, any grade (4 mg/day QD, N = 29): 6 n | Diarrhea, ≥G3 (4 mg/day QD, N = 29): 0 n | Dry skin, ≥G3 (4 mg/day QD, N = 29): 0 n | Hemoglobin decreased, ≥G3 (4 mg/day QD, N = 29): 0 n | Hypoalbuminemia, ≥G3 (4 mg/day QD, N = 29): 0 n | Malaise, ≥G3 (4 mg/day QD, N = 29): 0 n | Nausea, ≥G3 (4 mg/day QD, N = 29): 0 n | Pruritus, ≥G3 (4 mg/day QD, N = 29): 0 n | Pyrexia, ≥G3 (4 mg/day QD, N = 29): 0 n | Rash, ≥G3 (4 mg/day QD, N = 29): 0 n | Stomatitis, ≥G3 (4 mg/day QD, N = 29): 0 n | Urticaria, ≥G3 (4 mg/day QD, N = 29): 0 n | Vomiting, ≥G3 (4 mg/day QD, N = 29): 0 n | WBC decreased, ≥G3 (4 mg/day QD, N = 29): 0 n | proportion of patients whose dose was decreased (8 mg/day BID (MTD) group, 7/38): 18.4% | proportion of patients whose treatment was interrupted (8 mg/day BID (MTD) group, 17/38): 44.7% | incidence of discontinuation due to ADRs (8 mg/day BID (MTD), 3/38): 7.9% | AST increased, ≥G3 (8 mg/day BID, N = 38): 0 n | Decreased appetite, ≥G3 (8 mg/day BID, N = 38): 0 n | Dry skin, ≥G3 (8 mg/day BID, N = 38): 0 n | Hypoalbuminemia, ≥G3 (8 mg/day BID, N = 38): 0 n | Malaise, ≥G3 (8 mg/day BID, N = 38): 0 n | Nausea, ≥G3 (8 mg/day BID, N = 38): 0 n | Other embolic and thrombotic events, ≥G3 (8 mg/day BID, N = 38): 0 n | Pruritus, ≥G3 (8 mg/day BID, N = 38): 0 n | Pyrexia, ≥G3 (8 mg/day BID, N = 38): 0 n | Stomatitis, ≥G3 (8 mg/day BID, N = 38): 0 n | WBC decreased, ≥G3 (8 mg/day BID, N = 38): 0 n | ALT increased, ≥G3 (8 mg/day QD, N = 38): 0 n | AST increased, ≥G3 (8 mg/day QD, N = 38): 0 n | Decreased appetite, ≥G3 (8 mg/day QD, N = 38): 0 n | Dry skin, ≥G3 (8 mg/day QD, N = 38): 0 n | Embolic and thrombotic events, any grade (8 mg/day QD, N = 38): 6 n | Hypoalbuminemia, ≥G3 (8 mg/day QD, N = 38): 0 n | Interstitial lung disease, ≥G3 (8 mg/day QD, N = 38): 0 n | Malaise, ≥G3 (8 mg/day QD, N = 38): 0 n | Nausea, any grade (8 mg/day QD, N = 38): 5 n | Nausea, ≥G3 (8 mg/day QD, N = 38): 0 n | Other embolic and thrombotic events, ≥G3 (8 mg/day QD, N = 38): 0 n | Pruritus, ≥G3 (8 mg/day QD, N = 38): 0 n | Rash maculo-papular, any grade (8 mg/day QD, N = 38): 11 n | Stomatitis, ≥G3 (8 mg/day QD, N = 38): 0 n | Urticaria, any grade (8 mg/day QD, N = 38): 5 n | Urticaria, ≥G3 (8 mg/day QD, N = 38): 0 n | Vomiting, ≥G3 (8 mg/day QD, N = 38): 0 n | WBC decreased, any grade (8 mg/day QD, N = 38): 5 n | WBC decreased, ≥G3 (8 mg/day QD, N = 38): 0 n | proportion of patients whose dose was decreased (10 mg/day QD (MTD) group, 7/18): 38.9% | proportion of patients whose treatment was interrupted (10 mg/day QD (MTD) group, 12/18): 66.7% | incidence of discontinuation due to ADRs (10 mg/day QD (MTD), 2/18): 11.1% | AST increased, ≥G3 (10 mg/day QD, N = 18): 0 n | Decreased appetite, ≥G3 (10 mg/day QD, N = 18): 0 n | Diarrhea, ≥G3 (10 mg/day QD, N = 18): 0 n | Dry skin, ≥G3 (10 mg/day QD, N = 18): 0 n | Embolic and thrombotic events, any grade (10 mg/day QD, N = 18): 5 n | Hypoalbuminemia, ≥G3 (10 mg/day QD, N = 18): 0 n | Interstitial lung disease, any grade (10 mg/day QD, N = 18): 0 n | Interstitial lung disease, ≥G3 (10 mg/day QD, N = 18): 0 n | Malaise, ≥G3 (10 mg/day QD, N = 18): 0 n | Nausea, ≥G3 (10 mg/day QD, N = 18): 0 n | Platelet count decreased, any grade (10 mg/day QD, N = 18): 12 n | Pruritus, ≥G3 (10 mg/day QD, N = 18): 0 n | Pyrexia, ≥G3 (10 mg/day QD, N = 18): 0 n | Rash maculo-papular, any grade (10 mg/day QD, N = 18): 0 n | Rash maculo-papular, ≥G3 (10 mg/day QD, N = 18): 0 n | Stomatitis, ≥G3 (10 mg/day QD, N = 18): 0 n | Urticaria, any grade (10 mg/day QD, N = 18): 6 n | WBC decreased, any grade (10 mg/day QD, N = 18): 0 n | WBC decreased, ≥G3 (10 mg/day QD, N = 18): 0 n | ALT increased, any grade (12 mg/day BID, N = 5): 0 n | ALT increased, ≥G3 (12 mg/day BID, N = 5): 0 n | AST increased, any grade (12 mg/day BID, N = 5): 0 n | AST increased, ≥G3 (12 mg/day BID, N = 5): 0 n | Decreased appetite, ≥G3 (12 mg/day BID, N = 5): 0 n | Dermatological toxicity, ≥G3 (12 mg/day BID, N = 5): 0 n | Dry skin, any grade (12 mg/day BID, N = 5): 0 n | Dry skin, ≥G3 (12 mg/day BID, N = 5): 0 n | Embolic and thrombotic events, any grade (12 mg/day BID, N = 5): 0 n | Embolic and thrombotic events, ≥G3 (12 mg/day BID, N = 5): 0 n | Hypoalbuminemia, ≥G3 (12 mg/day BID, N = 5): 0 n | Malaise, ≥G3 (12 mg/day BID, N = 5): 0 n | Nausea, ≥G3 (12 mg/day BID, N = 5): 0 n | Other embolic and thrombotic events, any grade (12 mg/day BID, N = 5): 0 n | Other embolic and thrombotic events, ≥G3 (12 mg/day BID, N = 5): 0 n | Pruritus, any grade (12 mg/day BID, N = 5): 0 n | Pruritus, ≥G3 (12 mg/day BID, N = 5): 0 n | Pulmonary embolism, any grade (12 mg/day BID, N = 5): 0 n | Pulmonary embolism, ≥G3 (12 mg/day BID, N = 5): 0 n | Pyrexia, ≥G3 (12 mg/day BID, N = 5): 0 n | Rash maculo-papular, ≥G3 (12 mg/day BID, N = 5): 0 n | Rash, ≥G3 (12 mg/day BID, N = 5): 0 n | Stomatitis, ≥G3 (12 mg/day BID, N = 5): 0 n
